# From patent US20060069132A1, “Azolecarboxamide herbicides” (priority 2004, published 2006)
# Where two headings read alike, the source gives them in different places.
# Tests used:
# [1] = tested on: barnyardgrass; assay: Test A pre-/postemergence herbicide test; format: in vivo, Echinochloa crus-galli; conditions: for pest or weed control at 500 g/ha / pest or weed control at 2000 g/ha: Echinochloa crus-galli, 240 h
# How it was run: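 Plants are held in greenhouse about ten days after treatment, then compared with untreated controls and scored 0 (no effect) to 100 (complete control). Preemergence dosing is a directed soil spray on sown sandy loam; postemergence dosing is spray to runoff at 2–10 cm height.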
# [2] = tested on: rice; assay: Test C flooded paddy test; format: in vivo, Oryza sativa; conditions: for Plant response rating, Rice / plant injury at 500 g/ha: 500 g ai/ha; for plant injury at 62 g/ha / plant injury at 125 g/ha / plant injury at 250 g/ha / plant injury at 500 g/ha: Oryza sativa
# How it was run: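 Postemergence sprays applied to plants 2 to 18 cm tall (1- to 4-leaf stage); paddy species grown to 2-leaf stage under flooding. After 12 to 14 days in greenhouse, visual rating versus untreated controls on 0–100 scale (0 no effect, 100 complete control).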
# [3] = Postemergence, 500 g ai/ha, 0 to 100 scale, 0 no effect, 100 complete control
# [4] = Postemergence, 2000 g ai/ha, 0 to 100 scale, 0 no effect, 100 complete control
# [5] = Preemergence, 2000 g ai/ha, visual rating, 0 to 100 scale (0 no effect, 100 complete control)
# [6] = preemergence, 500 g ai/ha, visual injury, 0 to 100 scale (0 no effect, 100 complete control)
# [7] = 125 g ai/ha, scale 0 to 100 (0 no effect, 100 complete control)
# [8] = 250 g ai/ha, scale of 0 to 100, 0 is no effect, 100 is complete control
# [9] = visual rating after 12 to 14 days, scale 0 to 100 (0 no effect, 100 complete control)
# [10] = Preemergence, 500 g ai/ha, visual rating, 0 to 100 scale (0 no effect, 100 complete control)
# [11] = 62 g ai/ha, scale 0 to 100 (0 no effect, 100 complete control)
# [12] = 125 g ai/ha, scale of 0 to 100, 0 is no effect, 100 is complete control
# [13] = post-emergence, Postemergence, 2000 g ai/ha, 0 to 100 scale, 0 no effect, 100 complete control, read-out: Plant response rating, Barnyardgrass
# [14] = pre-emergence, Preemergence, 500 g ai/ha, visual rating, 0 to 100 scale (0 no effect, 100 complete control), read-out: Barnyardgrass plant response rating
# [15] = 62 g ai/ha, scale 0 to 100 (0 no effect, 100 complete control), read-out: Rice plant response rating
# [16] = visual rating after 12 to 14 days, scale 0 to 100 (0 no effect, 100 complete control), read-out: Plant response rating, Rice
# [17] = post-emergence, Postemergence, 500 g ai/ha, 0 to 100 scale, 0 no effect, 100 complete control, read-out: Barnyardgrass plant response rating
# [18] = pre-emergence, Preemergence, 2000 g ai/ha, visual rating, 0 to 100 scale (0 no effect, 100 complete control), read-out: Barnyardgrass plant response rating
# [19] = Preemergence, 2000 g ai/ha, 0 to 100 scale, 0 no effect, 100 complete control
# [20] = 125 g ai/ha, scale 0 to 100 (0 no effect, 100 complete control), read-out: Rice plant response rating
# [21] = 250 g ai/ha, scale of 0 to 100, 0 is no effect, 100 is complete control, read-out: Rice plant response rating
structure (smiles),measurement,setting,value
CCn1nc(C(C)(C)C)cc1C(=O)Nc1cccc(OC(C)C)c1 [Compound 273],Barnyardgrass plant response rating,[1]; [3],55
same,"Plant response rating, Barnyardgrass",[1]; [4],75
same,Barnyardgrass plant response rating,[1]; [5],95
same,Barnyardgrass plant response rating,[1]; [6],70
same,Rice plant response rating,"[2]; 62 g ai/ha, scale 0 to 100",10
same,Rice plant response rating,[2]; [7],40
same,Rice plant response rating,[2]; [8],50
same,"Plant response rating, Rice",[2]; [9],60
C=CCn1nc(C(C)(C)C)cc1C(=O)Nc1cccc(C(C)=NO)c1 [Compound 117],Barnyardgrass plant response rating,[1]; [3],45
same,"Plant response rating, Barnyardgrass",[1]; [4],75
same,Barnyardgrass plant response rating,[1]; [10],30
same,Barnyardgrass plant response rating,[1]; [5],70
same,Rice plant response rating,[2]; [11],0
same,Rice plant response rating,[2]; [12],15
same,Rice plant response rating,[2]; [8],45
same,"Plant response rating, Rice",[2]; [9],65
"CCn1nc(C(C)(C)C)cc1C(=O)Nc1cccc(C(=O)NCC(F)(F)F)c1 [Compound 43, 3-(1,1-dimethylethyl)-1-ethyl-N-[3-[[(2,2,2-trifluoroethyl)amino]carbonyl]-phenyl]-1H-pyrazole-5-carboxamide]",pest or weed control at 500 g/ha,"[1]; post-emergence, Postemergence, 500 g ai/ha, 0 to 100 scale, 0 no effect, 100 complete control, read-out: Plant response rating, Barnyardgrass",90%
same,pest or weed control at 2000 g/ha,[1]; [13],100%
same,pest or weed control at 500 g/ha,[1]; [14],60%
same,pest or weed control at 2000 g/ha,"[1]; pre-emergence, Preemergence, 2000 g ai/ha, 0 to 100 scale, 0 no effect, 100 complete control, read-out: Barnyardgrass plant response rating",90%
same,plant injury at 62 g/ha,[2]; [15],0%
same,plant injury at 125 g/ha,"[2]; 125 g ai/ha, scale of 0 to 100, 0 is no effect, 100 is complete control, read-out: Rice plant response rating",0%
same,plant injury at 250 g/ha,"[2]; 250 g ai/ha, visual rating after 12 to 14 days, scale 0 to 100 (0 no effect, 100 complete control), read-out: Plant response rating, Rice",20%
same,plant injury at 500 g/ha,[2]; [16],20%
CCn1nc(C(C)(C)C)cc1C(=O)Nc1cccc(C(=O)N2CC=CC2)c1 [Compound 286],Barnyardgrass plant response rating,[1]; [3],60
same,"Plant response rating, Barnyardgrass",[1]; [4],80
same,Barnyardgrass plant response rating,[1]; [5],85
same,Barnyardgrass plant response rating,[1]; [6],75
same,Rice plant response rating,"[2]; 62 g ai/ha, scale 0 to 100",45
same,Rice plant response rating,[2]; [7],55
same,Rice plant response rating,[2]; [8],65
same,"Plant response rating, Rice",[2]; [9],75
"CCn1nc(C(C)(C)C)cc1C(=O)Nc1cc(C(=O)OC)ccn1 [Compound 151, methyl 2-[[[3-(1,1-dimethylethyl)-1-ethyl-1H-pyrazol-5-yl]carbonyl]amino]-4-pyridinecarboxylate]",pest or weed control at 500 g/ha,[1]; [17],10%
same,pest or weed control at 2000 g/ha,[1]; [13],10%
same,pest or weed control at 500 g/ha,[1]; [14],0%
same,pest or weed control at 2000 g/ha,[1]; [18],0%
"CCOC(=O)c1ccc(F)c(NC(=O)C2CC(C(C)(C)C)=NN2CC)c1 (stereo not drawn) [Compound 267, ethyl 3-[[[3-(1,1-dimethylethyl)-1-ethyl-4,5-dihydro-1H-pyrazol-5-yl]carbonyl]amino]-4-fluorobenzoate]",pest or weed control at 500 g/ha,[1]; [17],40%
same,pest or weed control at 2000 g/ha,[1]; [13],65%
same,pest or weed control at 2000 g/ha,[1]; [18],80%
same,pest or weed control at 500 g/ha,"[1]; pre-emergence, preemergence, 500 g ai/ha, visual injury, 0 to 100 scale (0 no effect, 100 complete control), read-out: Barnyardgrass plant response rating",70%
CCOC(=O)c1cccc(NC(=O)c2cc(C(C)(C)C)nn2CCF)c1 [Compound 79],"Plant response rating, Barnyardgrass",[1]; [3],40
same,"Plant response rating, Barnyardgrass",[1]; [4],40
same,Barnyardgrass plant response rating,[1]; [10],20
same,Barnyardgrass plant response rating,[1]; [19],35
same,Rice plant response rating,[2]; [11],20
same,Rice plant response rating,[2]; [12],20
same,Rice plant response rating,[2]; [8],20
same,"Plant response rating, Rice",[2]; [9],30
"CCc1nn(C(C)C)nc1C(=O)Nc1cccc(C(=O)N(C)C)c1 [Compound 358, N-[3-[(dimethylamino)carbonyl)phenyl]-5-ethyl-2-(1-methylethyl)-2H-1,2,3-triazole-4-carboxamide]",plant injury at 62 g/ha,"[2]; 62 g ai/ha, scale 0 to 100, read-out: Rice plant response rating",20%
same,plant injury at 125 g/ha,[2]; [20],65%
same,plant injury at 250 g/ha,[2]; [21],70%
same,plant injury at 500 g/ha,[2]; [16],85%
CCn1nc(C(C)(C)C)cc1C(=O)Nc1cccc(C(=O)NOC)c1 [Compound 67],"Plant response rating, Barnyardgrass",[1]; [3],0
same,"Plant response rating, Barnyardgrass",[1]; [4],25
same,Barnyardgrass plant response rating,[1]; [10],0
same,Barnyardgrass plant response rating,[1]; [19],30
same,Rice plant response rating,[2]; [11],0
same,Rice plant response rating,[2]; [12],0
same,Rice plant response rating,[2]; [8],0
same,"Plant response rating, Rice",[2]; [9],30
"CCn1nc(C(C)(C)C)cc1C(=O)Nc1ccc(F)c(C(=O)N(C)C)c1 [Compound 236, N-[3-[(dimethylamino)carbonyl]-4-fluorophenyl]-3-(1,1-dimethylethyl)-1-ethyl-1H-pyrazole-5-carboxamide]",plant injury at 62 g/ha,[2]; [15],0%
same,plant injury at 125 g/ha,[2]; [20],30%
same,plant injury at 250 g/ha,[2]; [21],60%
same,plant injury at 500 g/ha,[2]; [16],70%
"CCn1nc(C(C)(C)C)cc1C(=O)Nc1cccc(C(=O)OC)n1 [Compound 143, methyl 6-[[[3-(1,1-dimethylethyl)-1-ethyl-1H-pyrazol-5-yl]carbonyl]amino]-2-pyridinecarboxylate]",pest or weed control at 500 g/ha,[1]; [17],10%
same,pest or weed control at 2000 g/ha,[1]; [13],25%
same,pest or weed control at 500 g/ha,[1]; [14],0%
same,pest or weed control at 2000 g/ha,[1]; [18],0%
"CCNC(=O)c1cc(NC(=O)c2cn(C(C)(C)C)nc2CC)ccc1F [Compound 241, 1-(1,1-dimethylethyl)-3-ethyl-N-[3-[(ethylamino)carbonyl]-4-fluorophenyl]-1H-pyrazole-4-carboxamide]",plant injury at 62 g/ha,[2]; [15],0%
same,plant injury at 125 g/ha,[2]; [20],0%
same,plant injury at 250 g/ha,[2]; [21],30%
same,plant injury at 500 g/ha,[2]; [16],65%
